Measured values published in US20230233569A1 (Revolution Medicines, Inc., priority 2020, published 2023).
Where two headings read alike, the source gives them in different places.

Experiments:
NCI-H358 (K-Ras G12C) = assay: CellTiter-Glo cell viability assay, 5-day treatment; assay type: cell-based; settings: Homo sapiens, NCI-H358, 120 h, 5-day treatment; read-out: H358 Cell Viability assay data (K-Ras G12C, IC50)
Procedure, shortened: (§1)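 Luminescence read-out after 5 days of compound exposure, with plates first brought to room temperature for roughly 30 minutes. Values are percent of averaged DMSO wells, fitted by four-parameter logistic regression.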

Capan-1 (K-Ras G12V) = assay: as above; assay type: cell-based; settings: Homo sapiens, CAPAN-1, 120 h, 5-day treatment; read-out: Capan-1 Cell Viability assay data (K-Ras G12V, IC50)
Procedure, shortened: as §1

KRAS G12C = KRAS G12C (Homo sapiens, UniProt P01116+P62937, G12C); assay: Disruption of BRAF RBD interaction with Ras (FRET / MOA assay, with Cyclophilin A); assay type: biochemical
Procedure, shortened: (§2)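 Here, compound titrations (ten points, factor 3, from 30 μM final) act on nucleotide-bound K-Ras and Cyclophilin A, and ternary complex formation disrupts the RAF RBD interaction.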

KRAS G12D = KRAS G12D (Homo sapiens, UniProt P01116+P62937, G12D); assay: as above; assay type: biochemical
Procedure, shortened: as §2

KRAS WT = KRAS WT (Homo sapiens, UniProt P01116+P62937); assay: as above; assay type: biochemical
Procedure, shortened: as §2

KRAS G12V = KRAS G12V (Homo sapiens, UniProt P01116+P62937, G12V); assay: as above; assay type: biochemical
Procedure, shortened: as §2

KRAS G12S = KRAS G12S (Homo sapiens, UniProt P01116+P62937, G12S); assay: as above; assay type: biochemical
Procedure, shortened: as §2

KRAS G13C = KRAS G13C (Homo sapiens, UniProt P01116+P62937, G13C); assay: as above; assay type: biochemical
Procedure, shortened: as §2

KRAS G13D = KRAS G13D (Homo sapiens, UniProt P01116+P62937, G13D); assay: as above; assay type: biochemical
Procedure, shortened: as §2

NRAS G12C = NRAS G12C (Homo sapiens, UniProt P01111+P62937, G12C); assay: as above; assay type: biochemical
[1] = read-out: KRAS G12C FRET data, IC50
[2] = read-out: KRAS G12D FRET data, IC50
[3] = KRAS WT, read-out: KRAS WT FRET data IC50
[4] = KRAS G12V, read-out: KRAS G12V FRET data IC50
[5] = read-out: KRAS G12S FRET data, IC50
[6] = read-out: KRAS G13C FRET data, IC50
[7] = KRAS G13D, read-out: KRAS G13D FRET data IC50
[8] = NRAS G12C, read-out: NRAS G12C FRET data IC50

Chain of KRAS G13C (P01116 1-169 isoform P01116-2 G13C): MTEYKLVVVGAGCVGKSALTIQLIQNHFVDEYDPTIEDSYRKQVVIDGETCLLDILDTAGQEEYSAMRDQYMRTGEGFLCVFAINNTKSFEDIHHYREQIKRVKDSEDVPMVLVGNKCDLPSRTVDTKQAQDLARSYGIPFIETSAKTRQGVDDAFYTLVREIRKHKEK
Chain of KRAS G13C (P62937 whole entry): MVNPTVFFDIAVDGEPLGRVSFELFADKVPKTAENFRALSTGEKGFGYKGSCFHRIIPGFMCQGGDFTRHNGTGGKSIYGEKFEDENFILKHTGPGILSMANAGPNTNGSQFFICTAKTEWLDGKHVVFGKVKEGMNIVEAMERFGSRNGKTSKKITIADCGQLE
Chain of KRAS G13D (P01116 1-169 isoform P01116-2 G13D limits assumed): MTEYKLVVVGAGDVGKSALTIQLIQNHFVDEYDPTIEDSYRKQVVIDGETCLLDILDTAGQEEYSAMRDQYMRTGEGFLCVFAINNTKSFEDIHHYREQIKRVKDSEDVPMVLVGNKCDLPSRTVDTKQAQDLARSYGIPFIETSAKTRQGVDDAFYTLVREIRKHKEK
Chain of KRAS G13D (P62937 whole entry): as the sequence (P62937 whole entry) above
Chain of KRAS WT (P01116 1-169 isoform P01116-2 limits assumed): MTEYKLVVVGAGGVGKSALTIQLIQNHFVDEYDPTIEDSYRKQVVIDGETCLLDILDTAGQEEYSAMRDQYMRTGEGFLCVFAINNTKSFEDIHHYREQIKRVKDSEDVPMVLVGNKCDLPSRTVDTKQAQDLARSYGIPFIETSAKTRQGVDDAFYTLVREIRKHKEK
Chain of KRAS WT (P62937 whole entry): as the sequence (P62937 whole entry) above
Chain of KRAS G12V (P01116 1-169 isoform P01116-2 G12V limits assumed): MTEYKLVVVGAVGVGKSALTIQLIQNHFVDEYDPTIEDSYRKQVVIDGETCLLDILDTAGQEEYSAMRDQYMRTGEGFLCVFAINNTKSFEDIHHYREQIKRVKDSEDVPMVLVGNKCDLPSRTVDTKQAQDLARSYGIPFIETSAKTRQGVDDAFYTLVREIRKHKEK
Chain of KRAS G12V (P62937 whole entry): as the sequence (P62937 whole entry) above
Chain of KRAS G12C (P01116 1-169 isoform P01116-2 G12C): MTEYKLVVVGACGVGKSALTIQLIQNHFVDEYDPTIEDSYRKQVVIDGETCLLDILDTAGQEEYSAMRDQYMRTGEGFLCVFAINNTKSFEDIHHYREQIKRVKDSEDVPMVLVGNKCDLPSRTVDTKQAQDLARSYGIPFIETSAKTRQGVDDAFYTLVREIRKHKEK
Chain of KRAS G12C (P62937 whole entry): as the sequence (P62937 whole entry) above
Chain of KRAS G12D (P01116 1-169 isoform P01116-2 G12D limits assumed): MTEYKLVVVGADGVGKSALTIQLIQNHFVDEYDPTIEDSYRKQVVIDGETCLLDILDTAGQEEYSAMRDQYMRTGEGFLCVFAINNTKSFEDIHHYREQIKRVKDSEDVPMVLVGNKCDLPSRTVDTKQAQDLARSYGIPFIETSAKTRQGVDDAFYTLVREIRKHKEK
Chain of KRAS G12D (P62937 whole entry): as the sequence (P62937 whole entry) above
Chain of KRAS G12S (P01116 1-169 isoform P01116-2 G12S limits assumed): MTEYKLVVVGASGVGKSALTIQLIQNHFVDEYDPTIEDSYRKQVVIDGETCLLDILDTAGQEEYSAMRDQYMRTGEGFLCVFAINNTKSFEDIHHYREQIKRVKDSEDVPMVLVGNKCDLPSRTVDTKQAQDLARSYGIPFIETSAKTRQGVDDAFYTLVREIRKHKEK
Chain of KRAS G12S (P62937 whole entry): as the sequence (P62937 whole entry) above
Chain of NRAS G12C (P01111 whole entry G12C): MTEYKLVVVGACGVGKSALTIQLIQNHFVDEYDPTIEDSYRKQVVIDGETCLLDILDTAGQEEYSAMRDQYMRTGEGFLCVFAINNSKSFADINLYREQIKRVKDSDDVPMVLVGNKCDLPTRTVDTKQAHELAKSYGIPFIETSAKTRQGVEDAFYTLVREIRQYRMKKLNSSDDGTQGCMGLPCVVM
Chain of NRAS G12C (P62937 whole entry): as the sequence (P62937 whole entry) above

SMILES	IC50 (NCI-H358 (K-Ras G12C)) [nM]	IC50 (Capan-1 (K-Ras G12V)) [nM]	IC50 (KRAS G12C; [1]) [nM]	IC50 (KRAS G12D; [2]) [nM]	IC50 (KRAS WT; [3]) [nM]	IC50 (KRAS G12V; [4]) [nM]	IC50 (KRAS G12S; [5]) [nM]	IC50 (KRAS G13C; [6]) [nM]	IC50 (KRAS G13D; [7]) [nM]	IC50 (NRAS G12C; [8]) [nM]	IC50 (KRAS G12C; KRAS G12C FRET data, IC50) [nM]	IC50 (KRAS G12D; KRAS G12D FRET data, IC50) [nM]	IC50 (KRAS WT; KRAS WT FRET data IC50, KRAS WT) [nM]	IC50 (KRAS G12V; KRAS G12V FRET data IC50, KRAS G12V) [nM]	IC50 (KRAS G12S; KRAS G12S FRET data, IC50) [nM]	IC50 (KRAS G13C; KRAS G13C FRET data, IC50) [nM]	IC50 (KRAS G13D; KRAS G13D FRET data IC50, KRAS G13D) [nM]	IC50 (NRAS G12C; NRAS G12C FRET data IC50, NRAS G12C) [nM]
CCn1c(-c2cccnc2[C@H](C)OC)c2c3cc(ccc31)-c1cc(O)cc(c1)C[C@H](NC(=O)[C@H](C(C)C)N(C)C(=O)[C@H]1CCN(CCO)C1)C(=O)N1CCC[C@H](N1)C(=O)OCC(C)(C)C2 [Example A111]	1000 to 10000	1000 to 10000	10 to 100	10 to 100	10 to 100	1000 to 10000	10 to 100	10 to 100	10 to 100	100 to 1000								
CCn1c(-c2cccnc2[C@H](C)OC)c2c3cc(ccc31)-c1cc(O)cc(c1)C[C@H](NC(=O)[C@H](C(C)C)N(C)C(=O)[C@H]1CCN(C(=O)CN(C)C)C1)C(=O)N1CCC[C@H](N1)C(=O)OCC(C)(C)C2 [Example A95]	100 to 1000	100 to 1000	10 to 100	10 to 100	10 to 100	10 to 100	10 to 100	10 to 100	10 to 100	10 to 100								
CCn1c(-c2cccnc2[C@H](C)OC)c2c3cc(ccc31)-c1csc(n1)C[C@H](NC(=O)[C@H](C(C)C)N(C)C(=O)N(C)C1CC1)C(=O)N1CCC[C@H](N1)C(=O)OCC(C)(C)C2 [Example A353]	10 to 100	10 to 100	10 to 100	100 to 1000	100 to 1000	100 to 1000	100 to 1000	100 to 1000	100 to 1000	10 to 100								
CCn1c(-c2cccnc2[C@H](C)OC)c2c3cc(ccc31)-c1cc(O)cc(c1)C[C@H](NC(=O)[C@H](C(C)C)N(C)C(=O)[C@H]1CC[C@@H](CN(C)C)O1)C(=O)N1CCC[C@H](N1)C(=O)OCC(C)(C)C2 [Example A397]	100 to 1000	100 to 1000	10 to 100	10 to 100	10 to 100	100 to 1000	10 to 100	10 to 100	10 to 100	10 to 100								
CCN(CC)C1CN(C(=O)N(C)[C@H](C(=O)N[C@H]2Cc3nc(cs3)-c3ccc4c(c3)c(c(-c3cccnc3[C@H](C)OC)n4CC)CC(C)(C)COC(=O)[C@@H]3CCCN(N3)C2=O)C(C)C)C1 [Example A319]	10 to 100	10 to 100	100 to 1000	1000 to 10000	100 to 1000	100 to 1000	100 to 1000	100 to 1000	100 to 1000	10 to 100								
CCn1c(-c2cccnc2[C@H](C)OC)c2c3cc(ccc31)-c1cc(O)cc(c1)C[C@H](NC(=O)[C@H](C(C)C)N(C)C(=O)[C@H]1C[C@@H](O)C1)C(=O)N1CCC[C@H](N1)C(=O)OCC(C)(C)C2 (atropisomer, axis not shown) [Example A121]	100 to 1000	100 to 1000									10 to 100	100 to 1000	10 to 100	10 to 100	10 to 100	10 to 100	10 to 100	10 to 100
CCn1c(-c2cccnc2[C@H](C)OC)c2c3cc(ccc31)-c1cc(O)cc(c1)C[C@H](NC(=O)[C@H](C(C)C)N(C)C(=O)[C@@H]1CC1(C)C)C(=O)N1CCC[C@H](N1)C(=O)OCC(C)(C)C2 [Example A157]	100 to 1000	100 to 1000	10 to 100	100 to 1000	10 to 100	100 to 1000	100 to 1000	100 to 1000	100 to 1000	10 to 100								
CCn1c(-c2cccnc2[C@H](C)OC)c2c3cc(ccc31)-c1cc(O)cc(c1)C[C@H](NC(=O)[C@H](C(C)C)N(C)C(=O)[C@H]1CCN(C(=O)[C@H]3CCCN3)C1)C(=O)N1CCC[C@H](N1)C(=O)OCC(C)(C)C2 [Example A378]	100 to 1000	1000 to 10000	10 to 100	10 to 100	10 to 100	10 to 100	10 to 100	10 to 100	10 to 100	10 to 100								
CCn1c(-c2cccnc2[C@H](C)OC)c2c3cc(ccc31)-c1cc(O)cc(c1)C[C@H](NC(=O)[C@H](C(C)C)N(C)C(=O)[C@@H]1OC[C@@H]3CCC[C@@H]31)C(=O)N1CCC[C@H](N1)C(=O)OCC(C)(C)C2 [Example A407]	100 to 1000	100 to 1000	10 to 100	100 to 1000	10 to 100	10 to 100	10 to 100	10 to 100	10 to 100	10 to 100								
CCn1c(-c2cccnc2[C@H](C)OC)c2c3cc(ccc31)-c1csc(n1)C[C@H](NC(=O)[C@H](C(C)C)N(C)C(=O)NC)C(=O)N1CCC[C@H](N1)C(=O)OCC(C)(C)C2 [Example A137]	100 to 1000	100 to 1000	100 to 1000	1000 to 10000	100 to 1000	100 to 1000	1000 to 10000	1000 to 10000	1000 to 10000	100 to 1000								
CCn1c(-c2cccnc2[C@H](C)OC)c2c3cc(ccc31)-c1csc(n1)C[C@H](NC(=O)[C@H](C(C)C)N(C)C(=O)N1CC(C#N)(N(C)C)C1)C(=O)N1CCC[C@H](N1)C(=O)OCC(C)(C)C2 [Example A452]	10 to 100	10 to 100	10 to 100	1000 to 10000	100 to 1000	100 to 1000	100 to 1000	100 to 1000	100 to 1000	10 to 100								
CCn1c(-c2cnccc2COC)c2c3cc(ccc31)-c1cc(O)cc(c1)C[C@H](NC(=O)[C@H](C(C)C)N(C)C(=O)[C@@H]1CCCN(C)C1)C(=O)N1CCC[C@H](N1)C(=O)OCC(C)(C)C2 [Example A259]	1000 to 10000	1000 to 10000	100 to 1000	100 to 1000	100 to 1000	1000 to 10000	100 to 1000	100 to 1000	100 to 1000	100 to 1000								
CCn1c(-c2cccnc2[C@H](C)OC)c2c3cc(ccc31)-c1cc(O)cc(c1)C[C@H](NC(=O)[C@H](C(C)C)N(C)C(=O)C1CNC1)C(=O)N1CCC[C@H](N1)C(=O)OCC(C)(C)C2 [Example A125]	1000 to 10000	1000 to 10000	10 to 100	10 to 100	10 to 100	100 to 1000	10 to 100	10 to 100	10 to 100	10 to 100								
